Experimental data reported in patent publication US10746749B2, “Ellagic acid formulations for use in coagulation assays” (Abbott Point of Care Inc., priority 2014, dated 2020).

How the values were obtained:
[1] = cited from earlier work
[2] = tested on: whole blood; assay: PT assay on sensor with SBQ-PVA immobilized substrate, heparin-spiked whole blood
Experimental: FIGS. 10 and 11 exemplify this concept as follows. A coagulation sensor was directly printed either with a large (FIG. 10) or small (FIG. 11) SBQ-PVA immobilized coagulation substrate. Subsequently, a PT coagulation activator was printed on top of the immobilized substrate matrix. These sensors were then tested with appropriate fluids to assess coagulation time. As with the results from FIGS. 5 and 6, one benefit of printing more of the immobilized substrate matrix is that the increased amount of immobilized substrate matrix led to an increase in pA. Also, when heparin is spiked into the whole blood sample, the clotting times are not as extended as they are expected to be (FIGS. 10 and 11 (response curves 181) (heparin spike) should be more similar to response curves 182 (abnormally long control fluid) clotting times, but are actually behaving more like whole blood without heparin, (response curves 183)). […] Further, applying a larger amount of the immobilizing matrix results in a greater neutralizing effect (e.g., compare the bias between whole blood and whole blood with heparin in FIGS. 10 and 11). […] In both FIGS. 10 and 11, the heparin spiked blood behaves more like unaltered whole blood than it does like an abnormally long control fluid, reflecting that there is an interferent/heparin neutralizing effect.

Compound	solubility in methanol [1]	extension of PT clotting time versus whole blood ([2]; heparin 1 IU/mL, smaller print amount of SBQ-PVA neutralizing matrix (FIG. 11)) [%]	extension of PT clotting time versus whole blood ([2]; heparin added to 1 IU/mL, large SBQ-PVA matrix print (FIG. 10)) [%]
O=c1oc2c(O)c(O)cc3c(=O)oc4c(O)c(O)cc1c4c23 [ellagic acid]	slightly soluble		
heparin		55	14
